In patent US11104661B1, “Inhibiting human integrin (α-4) (β-7)” (Morphic Therapeutic, Inc., priority 2019, dated 2021):

Target: T1, α4β7 (Homo sapiens, UniProt P13612+P26010)
T1 construct: endogenous in cells; host or cells: RPMI 8866 cells
T1 sequence (P13612 34-1032): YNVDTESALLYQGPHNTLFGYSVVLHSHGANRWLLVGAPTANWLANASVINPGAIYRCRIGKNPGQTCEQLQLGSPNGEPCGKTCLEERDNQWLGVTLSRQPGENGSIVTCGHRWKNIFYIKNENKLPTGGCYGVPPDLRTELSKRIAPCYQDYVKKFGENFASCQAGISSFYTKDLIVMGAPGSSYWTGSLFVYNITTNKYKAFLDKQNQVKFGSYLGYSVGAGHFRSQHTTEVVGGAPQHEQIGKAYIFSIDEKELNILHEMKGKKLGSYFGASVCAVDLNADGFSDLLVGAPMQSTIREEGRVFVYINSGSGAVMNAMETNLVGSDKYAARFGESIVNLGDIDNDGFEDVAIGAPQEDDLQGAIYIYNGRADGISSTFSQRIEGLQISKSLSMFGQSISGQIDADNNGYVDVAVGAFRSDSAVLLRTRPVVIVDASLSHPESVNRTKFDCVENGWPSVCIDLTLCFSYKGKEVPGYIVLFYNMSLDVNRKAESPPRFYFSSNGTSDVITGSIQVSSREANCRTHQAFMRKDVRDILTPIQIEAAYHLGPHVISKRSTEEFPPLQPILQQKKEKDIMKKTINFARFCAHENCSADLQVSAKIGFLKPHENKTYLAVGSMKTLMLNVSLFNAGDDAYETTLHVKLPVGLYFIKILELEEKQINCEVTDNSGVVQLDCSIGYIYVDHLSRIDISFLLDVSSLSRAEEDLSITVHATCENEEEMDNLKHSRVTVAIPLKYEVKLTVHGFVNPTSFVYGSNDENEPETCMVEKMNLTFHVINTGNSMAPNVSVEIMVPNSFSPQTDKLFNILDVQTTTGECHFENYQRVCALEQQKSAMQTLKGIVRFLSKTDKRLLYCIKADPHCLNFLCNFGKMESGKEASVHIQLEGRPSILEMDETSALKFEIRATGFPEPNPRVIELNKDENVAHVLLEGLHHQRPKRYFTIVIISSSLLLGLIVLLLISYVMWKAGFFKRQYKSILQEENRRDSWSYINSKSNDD
T1 sequence (P26010 20-798): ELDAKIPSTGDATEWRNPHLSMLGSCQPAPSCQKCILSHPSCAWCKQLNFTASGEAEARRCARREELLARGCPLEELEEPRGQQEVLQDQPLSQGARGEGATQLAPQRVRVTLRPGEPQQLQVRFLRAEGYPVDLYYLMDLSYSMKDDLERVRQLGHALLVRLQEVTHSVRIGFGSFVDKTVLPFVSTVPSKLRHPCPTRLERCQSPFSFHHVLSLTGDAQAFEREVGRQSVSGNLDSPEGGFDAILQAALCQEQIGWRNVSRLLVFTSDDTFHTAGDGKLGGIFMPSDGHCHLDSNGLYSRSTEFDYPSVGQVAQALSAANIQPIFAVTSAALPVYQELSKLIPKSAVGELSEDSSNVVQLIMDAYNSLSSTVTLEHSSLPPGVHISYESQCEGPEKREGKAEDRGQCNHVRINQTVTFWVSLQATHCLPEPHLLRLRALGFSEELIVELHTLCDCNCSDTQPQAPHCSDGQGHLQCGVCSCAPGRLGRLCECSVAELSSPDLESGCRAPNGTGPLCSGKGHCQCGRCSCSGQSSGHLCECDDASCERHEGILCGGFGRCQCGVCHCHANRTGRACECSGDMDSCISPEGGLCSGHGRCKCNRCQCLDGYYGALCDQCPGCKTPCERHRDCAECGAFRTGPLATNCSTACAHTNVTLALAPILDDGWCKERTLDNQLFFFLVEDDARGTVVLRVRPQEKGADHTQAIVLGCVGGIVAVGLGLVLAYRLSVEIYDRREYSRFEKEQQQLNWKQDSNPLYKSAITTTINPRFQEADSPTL
Experiment: Cell adhesion assay, RPMI8866 cells on MAdCAM coated plates (Example 7)
Format: cell-based
Settings: RPMI8866 cells adhering to recombinant human MAdCAM; Table 4 comparative compounds; read-out: CA Assay (Example 7)
Procedure: Three in vitro assays were used to examine the α4β7 mechanistic process used by cells: 1) ligand:receptor affinity, 2) the avidity of those interactions on a cell's surface, and 3) how those interactions fare under an imposing force. In Example 5, a Fluorescence Polarization (FP) assay is used to measure compound activity through binding competition with the fluorescein-labeled peptide. In Example 6, the potency of compounds against α4β7 is measured in the cell-based ligand binding assay (LBA), using RPMI 8866 cells incubated with the compound samples in competition with soluble MAdCAM-1 ligand. In Example 7, activity of compounds is evaluated in a cell adhesion assay that mechanistically tests what occurs in vivo when trafficking cells utilize α4β7 to adhere to MAdCAM-1 expressing HEVs of the gut during the extravasation process. In the cell adhesion assay of Example 7, a MAdCAMI1-(Fc) is coated on plastic, and α4β7 expressing cells (RPMI-8866) are allowed to adhere to the coated surface in the presence of the test compounds. Next, the force of washing with buffer is applied to cells thereby testing the strength of that adhesion. Unattached cells are removed and the remaining adherent cells are quantified.
Example 7 describes a cell adhesion assay.
To each well of a 96 well plate, 100 ug of recombinant human MAdCAM in 100 ul PBS is added and incubated overnight at 4° C. After incubation MAdCAM is removed by aspiration and 200 ul of PBS+1% BSA is added to block the plate for 2 hours at 37° C. and 5% CO2. During this incubation dilution curves of compound are made in 100% DMSO in 96 well V bottom plates. 1.75 ul of diluted compounds are then transferred to a new 96 well U bottom plate containing 20 ul of assay media (phosphate free DMEM+25 mM HEPES+1% BSA). To this an additional 155 ul of assay media is added with mixing by pipetting up and down. This mixture is allowed to incubate for 15 minutes at 37° C. and 5% CO2. After incubation 175 ul of assay media containing 2e6/mL RPMI8866 cells is added to compound containing wells without mixing and plate is allowed to incubate for another 15 minutes at 37° C. and 5% CO2. During this incubation MAdCAM coated plates are removed from incubator and washed twice with 200 ul PBS+0.1% BSA. […] This plate is then incubated at 37° C. and 5% CO2 for 1 hour. After incubation plates are washed twice with 200 ul and once with 50 ul of phenol free RPMI+1% BSA. A final 50 ul of phenol free RPMI+1% BSA is added to wells after last wash. Next 50 ul of Promega cell titer glow is added to the wells. Plate is incubated on shaker for 2 minutes at 200 RPM followed by another 8 minutes off shaker before having the luminescence read on a Biotek Citation 5 plate reader. Raw data is converted to % inhibition compared to bottom of curve and analyzed using a 4-parameter non linear curve in Prism to determine IC50 and IC90.

`Cc1ccccc1-c1cc([C@H](CC(=O)O)NC(=O)C(CC(C)C)n2ccccc2=O)ccc1C#N` (stereo partly shown) was tested. Which IC50 did it give?
Its IC50 is over 0.5 µM.
